Reference: PMC6021035, “Insights into biological activity of ureidoamides with primaquine and amino acid moieties” (Journal of Enzyme Inhibition and Medicinal Chemistry, 2018)
Converted amounts (≈) assume the structure as drawn. Marks after values point to notes of the source that are not given here.

Tests used:
E. coli = test: MIC determination, E. coli as summarised in text; assay type: cell-based; details: Escherichia coli, both strains
Description: Before analysis, compounds 5a–f were dissolved in 96% ethanol in a concentration of 2 mg/ml as stock solutions. Inoculums were prepared with fresh cultures of microbial strains, cultured on tryptic-soy agar or Sabouraud 2% (m/v) dextrose agar for 18 h (48–72 h for fungi) at 30 °C with physiological saline containing approximately […]. Inoculum density (0.5 McFarland units) was adjusted with a bio Mériex (France) densitometer. Minimum inhibitory concentration (MIC) was determined by the twofold micro-dilution method in Mu¨ller–Hinton broth for bacterial strains and RPMI 1640 + 2% m/v dextrose for fungi according to the EUCAST recommendations in a sterile 96-well flat-bottom plastic tissue culture plate. MIC was determined using a linear regression curve after incubation of compounds and reading the optical density at 570 nm using an iEMS microplate reader. […] All tests were performed in triplicate and expressed as the mean.

[1] = Inhibition of linoleic acid peroxidation (LP), AAPH-initiated; parameters: tested at 100 µM; details: 100 μΜ, 37 °C
Description: To initiate lipid peroxidation, the free radical AAPH was used[10]. The final solution in the UV cuvette consisted of 10 µl sodium linoleate solution (c = 16 mM) and 0.93 ml phosphate buffer pH 7.4 (c = 50 mM). Afterwards, 10 µl of the tested compound solution in DMSO (final concentration 0.1 mM) and 50 µl of AAPH solution (c = 40 mM) were added. The experiment was performed at 37 °C under air. Oxidation of linoleic acid sodium salt was monitored at 234 nm. The assay was repeated at least in triplicate and the standard deviation of absorbance was less than 10% of the mean. Trolox was used under the same experimental conditions as a reference compound.

[2] = Interaction with 1,1-diphenyl-2-picrylhydrazyl (DPPH); details: 100 μΜ
Description: To a solution of DPPH in absolute ethanol, an appropriate volume of the tested compound solution (0.1 mM final concentration) dissolved in DMSO was added. Absorbance was recorded at 517 nm after 20 and 60 min at room temperature (Lambda 20 double beam spectrophotometer, Perkin-Elmer, UK). Experiments were repeated at least in triplicate and the standard deviation of absorbance was less than 10% of the mean[10]. NDGA was used under the same experimental conditions as a reference compound.

[3] = tested on: Enterococcus faecalis ATCC 29212; test: Minimum biofilm eradication assay; assay type: cell-based
Description: (§1) We tested the susceptibility of different bacterial and yeast strains to compounds 5a–f by determining the minimum biofilm eradication concentration (MBEC). The test was performed in a sterile 96-well flat-bottom plastic tissue culture plate (TPP, Switzerland). Each well was filled with 100 µl of bacterial (10^7 CFUs/ml) or yeast (5 × 10^6 CFUs/ml) suspension. When the possibility of inhibition of yeast biofilm formation was tested, the wells were pre-treated with FBS (250 µl per well). Negative controls contained broth only. Positive controls were performed using standard antibacterial and antifungal drugs gentamycin and amphotericin B, respectively. The plates were covered and incubated aerobically for 24 h (bacteria) or 48 h (yeast) at 37 °C. Following the incubation period, each well was aspirated and washed three times with 250 µl of PBS and vigorously shaken in order to remove all non-adherent bacteria/yeast. The remaining attached cells were fixed with methanol (15 min) and the plates were left to dry overnight. The formed biofilm was stained with crystal violet (1%, 5 min). Excess stain was rinsed by placing the plate under running tap water and the plates were left to dry for 24 h. Adherent cells were resolubilized with acetic acid (33%, v/v). The optical density of each well was measured at 570 nm using a Multiscan plate reader. The MBEC value represents the lowest compound dilution at which microorganisms fail to grow.

[4] = tested on: Escherichia coli ATCC 10536; test: Minimum biofilm eradication assay; assay type: cell-based
Description: as §1

[5] = tested on: Pseudomonas aeruginosa ATCC 9027; test: Minimum biofilm eradication assay; assay type: cell-based
Description: as §1

Candida kefyr ATCC 2512 = test: Minimum biofilm eradication assay; assay type: cell-based; details: Kluyveromyces marxianus, ATCC2512, 48 h, read-out: MBEC
Description: as §1

[6] = tested on: Candida parapsylosis ATCC 22019; test: Minimum biofilm eradication assay; assay type: cell-based
Description: as §1

[7] = tested on: Candida tropicalis ATCC 750; test: Minimum biofilm eradication assay; assay type: cell-based; details: ATCC750, 48 h, read-out: MBEC
Description: as §1

[8] = tested on: Candida albicans ATCC 10231; test: Minimum biofilm eradication assay; assay type: cell-based; details: ATCC10231, 48 h, read-out: MBEC
Description: as §1

[9] = tested on: Staphylococcus aureus ATCC 6538; test: Minimum biofilm eradication assay; assay type: cell-based
Description: as §1

[10] = tested on: Candida albicans ATCC 90028; test: Minimum biofilm eradication assay; assay type: cell-based; details: ATCC90028, 48 h, read-out: MBEC
Description: as §1

[11] = tested on: Staphylococcus aureus ATCC 25213; test: Minimum biofilm eradication assay; assay type: cell-based
Description: as §1

[12] = tested on: Pseudomonas aeruginosa ATCC 27853; test: Minimum biofilm eradication assay; assay type: cell-based
Description: as §1

[13] = tested on: Candida krusei ATCC 14243; test: Minimum biofilm eradication assay; assay type: cell-based; details: Pichia kudriavzevii, ATCC14243, 48 h, read-out: MBEC
Description: as §1

[14] = tested on: Escherichia coli ATCC 8739; test: Minimum biofilm eradication assay; assay type: cell-based
Description: as §1

[15] = tested on: Candida tropicalis ATCC 750; test: MIC determination (broth micro-dilution); assay type: cell-based; details: ATCC750
Summary of the method: (§2)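 Twofold broth microdilution per EUCAST, in Müller–Hinton broth for bacteria and RPMI 1640 + 2% dextrose for fungi; inoculum adjusted to 0.5 McFarland. MIC derived by linear regression of OD at 570 nm; triplicate means.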

[16] = tested on: Staphylococcus aureus ATCC 25213; test: MIC determination (broth micro-dilution); assay type: cell-based; details: ATCC25213
Summary of the method: as §2

[17] = tested on: Enterococcus hyrae ATCC 8043; test: MIC determination (broth micro-dilution); assay type: cell-based; details: ATCC8043
Summary of the method: as §2

[18] = tested on: Bacillus subtilis ATCC 6633; test: MIC determination (broth micro-dilution); assay type: cell-based; details: ATCC6633
Summary of the method: as §2

COc1cc(NC(C)CCCNC(=O)NC(C(=O)NC(c2ccccc2)c2ccc(Cl)cc2)c2ccc(Cl)cc2)c2ncccc2c1 (stereo not shown) [Compound 5e, 2–(4-chlorophenyl)-N-[(4-chlorophenyl)(phenyl)methyl]-2-[({4-[(6-methoxyquinolin-8-yl)amino]pentyl}carbamoyl)amino]acetamide]
MIC (E. coli): 45 to 60 µg/mL (≈ 67.1 to 89.5 µM) | LP inhibition (%) ± SD [1]: 80 ± 2.7% | melting point: 150 to 151.5 °C | DPPH-reducing ability 20 min ([2]; 20 min): 1^b % | DPPH-reducing ability 60 min ([2]; 60 min): 1^b % | MBEC [3]: >100 µg/mL | MBEC [4]: 50 µg/mL | MBEC [5]: >100 µg/mL | minimal effective concentration (Candida kefyr ATCC 2512): 6.25 µg/mL | MBEC [6]: >100 µg/mL | minimal effective concentration [7]: > 100 µg/mL | minimal effective concentration [8]: 25 µg/mL | MBEC [9]: >100 µg/mL | minimal effective concentration [10]: 25 µg/mL | MBEC [11]: >100 µg/mL | MBEC [12]: >100 µg/mL | minimal effective concentration [13]: > 100 µg/mL | MBEC [14]: 50 µg/mL | MIC [15]: > 100 µg/mL | MIC [16]: > 100 µg/mL | MIC [17]: > 100 µg/mL | MIC [18]: > 100 µg/mL
